Columns and labels:
[1] = system: Prostate Cancer cell lines; assay: NCI in vitro anticancer screen (SRB), prostate cancer subpanel; settings: 48 hours exposure; average percent growth over the cell lines
Description: (§1) Compounds chosen for the program are initially tested in an in vitro anticancer screen. A total of fifty-five human tumor cell lines, derived from nine cancer types (lung, colon, melanoma, renal, ovarian, brain, prostate, breast and leukemia), are used in this screen. The tumor cells are inoculated over a series of standard 96-well microtiter plates on day 0. These cells are then preincubated on the microtiter plates for 24 hours. The test compounds are added to the wells in five 10-fold dilutions starting from the highest soluble concentration. Each compound is tested against every cell line in the panel. The compounds are incubated for 48 hours with the tumor cell lines. At the termination of the assay, the cells are fixed in situ, washed, and dried. Sulforhodamine B (SRB), a pink anionic dye that binds to the basic amino acids of trichloroacetic acid-fixed cells, is added. The cells are washed again, and the remaining dye is a function of the adherent cell mass. The bound stain is solubilized and measured spectrophotometrically. The data are entered from automatic reading devices into a computer for subsequent storage and analysis.
(§2) The measured effect of each test compound on the cell lines is calculated according to one or the other of the following two expressions:
(§3) If (Mean ODtest−Mean ODtzero)□0, then PG=100×(Mean ODtest−Mean ODtzero)/(Mean ODctrl−Mean ODtzero);
(§4) If (Mean ODtest−Mean ODtzero)<0, then PG=100×(Mean ODtest−Mean ODtzero)/Meantzero;

[2] = system: CNS Cancer cell lines; assay: NCI in vitro anticancer screen (SRB), CNS cancer subpanel; settings: 48 hours exposure; average percent growth over the cell lines
Description: as §1, §2, §3, §4
(§5) First, a data sheet is provided which lists, for each cell line, the Mean ODtzero, the Mean ODctrl, the Mean ODtest for each of the five concentrations, the calculated PGs for each concentration, and the response parameters G150, TGI, and LC50.
(§6) Third, mean graphs at each of the principal response parameters (GI50, TGI, and LC50) are provided. […] Since the bar scale is logarithmic, a bar two units to the right implies the compound achieved the response parameter (e.g., GI50) for the cell line at a concentration 1/100 the mean concentration required over all cell lines, and thus the cell line is unusually sensitive to that compound. Bars extending to the left correspondingly imply sensitivity less than the mean. Thus, the mean graphs facilitate visual scanning of data for potential patterns of selectivity for particular cell lines or for particular subpanels with respect to a selected response parameter.

[3] = system: K/1 = ras^K Transformed NRKE Cells; settings: K/1 = ras^K transformed NRKE cells, compared with normal NRKE cells
[4] = system: H/1.2 = ras^H Transformed NRKE Cells; settings: H/1.2 = ras^H transformed NRKE cells, compared with normal NRKE cells
[5] = system: Leukemia cell lines; assay: NCI in vitro anticancer screen (SRB), leukemia subpanel; settings: 48 hours exposure; average percent growth over the cell lines
Description: as §1, §2, §3, §4, §5, §6

[6] = system: Non-Small Cell Lung Cancer cell lines; assay: NCI in vitro anticancer screen (SRB), non-small cell lung cancer subpanel; settings: 48 hours exposure; average percent growth over the cell lines
Description: as §1, §2, §3, §4, §5, §6

[7] = system: Melanoma cell lines; assay: NCI in vitro anticancer screen (SRB), melanoma subpanel; settings: 48 hours exposure; average percent growth over the cell lines
Description: as §1, §2, §3, §4, §5, §6

[8] = system: 3LL = Lewis Lung Carcinoma Cells; settings: 3LL = Lewis lung carcinoma cells, compared with normal NRKE cells
[9] = system: Ovarian Cancer cell lines; assay: NCI in vitro anticancer screen (SRB), ovarian cancer subpanel; settings: 48 hours exposure; average percent growth over the cell lines
Description: as §1, §2, §3, §4

[10] = system: Colon Cancer cell lines; assay: NCI in vitro anticancer screen (SRB), colon cancer subpanel; settings: 48 hours exposure; average percent growth over the cell lines
Description: as §1, §2, §3, §4

[11] = system: Breast Cancer cell lines; assay: NCI in vitro anticancer screen (SRB), breast cancer subpanel; settings: 48 hours exposure; average percent growth over the cell lines
Description: as §1, §2, §3, §4

[12] = system: Renal Cancer cell lines; assay: NCI in vitro anticancer screen (SRB), renal cancer subpanel; settings: 48 hours exposure; average percent growth over the cell lines
[13] = system: N/4.2-NRKE transformed by the human ras^N gene; settings: N/4.2 = ras^N transformed NRK cells, compared with normal NRKE cells
[14] = system: K/1-NRKE tumor (ras^K-transformed NRKE cells); settings: mouse, in vivo
[15] = target: HIV-RT (Human immunodeficiency virus type 1 group M subtype B, UniProt P03366); assay: HIV-RT inhibition by AZT-TP, lavendamycin analogs and their combinations; assay type: biochemical; design: unit of the concentration uncertain; settings: LA Conc. 0 (unit uncertain); for % inh. ave.: average of three trials
Text: AZT-TP was used for these in vitro studies since AZT is naturally phosphorylated in vivo.
The results of these tests are given in Table XVIII and XIX below, where the percent inhibition of HIV-RT activity is reported for three different trials and then averaged in the seventh column. […] .

[16] = AZT-TP Conc. 0.01 (unit uncertain)
[17] = AZT-TP Conc. 0.05 (unit uncertain)

Compound	Differential Index K/1 [3]	Differential Index H/1.2 [4]	Differential Index 3LL [8]	Differential Index N/4.2 [13]	also measured
CCCCCCCCOC(=O)c1cc2c([nH]c3ccccc32)c(-c2ccc3c(n2)C(=O)C(NC=O)=CC3=O)n1 [Compound 56, 7-N-formyldemethyllavendamycin octyl ester]	>1.57	i1.00	>1.03	>1.5	Activity (Average PG for highest dose tested) Prostate Cancer [1]: +14.0%; Activity (Average PG for highest dose tested) CNS Cancer [2]: −36.8%; Activity (Average PG for highest dose tested) Leukemia [5]: −29.7%; Activity (Average PG for highest dose tested) Non-Small Cell Lung Cancer [6]: −28.8%; Activity (Average PG for highest dose tested) Melanoma [7]: −39.9%; Activity (Average PG for highest dose tested) Ovarian Cancer [9]: −57.3%; Activity (Average PG for highest dose tested) Colon Cancer [10]: −30.0%; Activity (Average PG for highest dose tested) Breast Cancer [11]: −42.3%; Activity (Average PG for highest dose tested) Renal Cancer [12]: −51.3%
CCCCOC(=O)c1cc2c([nH]c3ccc(OC)cc32)c(-c2ccc3c(n2)C(=O)C(NC(C)=O)=CC3=O)n1 [Compound 4]	1.14	1.19	<0.75	1.14	–
Cc1ccc2c(n1)C(=O)C(NC(=O)C(C)C)=CC2=O [Compound 29]	0.2	1.03	2.1	1.3	–
CCCCOC(=O)c1cc2c([nH]c3ccccc32)c(-c2ccc3c(n2)C(=O)C(NC(=O)CCC)=CC3=O)n1 [Compound 12]	1.32	1.61	0.29	0.94	–
CCCCCCCCOC(=O)c1cc2c([nH]c3ccccc32)c(-c2ccc3c(n2)C(=O)C(N)=CC3=O)n1 [Compound 57, demethyllavendamycin octyl ester]	–	–	–	–	Activity (Average PG for highest dose tested) Prostate Cancer [1]: +94.5%; Activity (Average PG for highest dose tested) CNS Cancer [2]: +81.0%; Activity (Average PG for highest dose tested) Leukemia [5]: +90.8%; Activity (Average PG for highest dose tested) Non-Small Cell Lung Cancer [6]: +89.8%; Activity (Average PG for highest dose tested) Melanoma [7]: +89.4%; Activity (Average PG for highest dose tested) Ovarian Cancer [9]: +89.3%; Activity (Average PG for highest dose tested) Colon Cancer [10]: +100.3%; Activity (Average PG for highest dose tested) Breast Cancer [11]: +96.0%; Activity (Average PG for highest dose tested) Renal Cancer [12]: +68.7%
CC(C)CCOC(=O)c1cc2c([nH]c3ccccc32)c(-c2ccc3c(n2)C(=O)C(NC(=O)CCl)=CC3=O)n1 [Compound 9, 7-N-CHLOROACETYLDEMETHYLLAVENDAMYCIN ISOAMYL ESTER]	2.41	1.02	0.42	1.13	–
CCCCCCCCOC(=O)c1cc2c([nH]c3ccccc32)c(-c2ccc3c(n2)C(=O)C(NC(=O)CCC)=CC3=O)n1 [Compound 14, 7-N-BUTYRYLDEMETHYLLAVENDAMYCIN OCTYL ESTER]	>10.0	>2.06	>2.06	>2.2	–
O=P1(N(CCCl)CCCl)NCCCO1 (centres unmarked) [CY, cyclophosphamide, reference compound]	–	–	–	–	Number Dead Number Treated ([14]; female, CD1 nu/nu): 0/7; Percent Wt. Change (g) [14]: −3.0 ″ 0.09 g
CCCCOC(=O)c1cc2c([nH]c3ccc(F)cc32)c(-c2ccc3c(n2)C(=O)C(NC(C)=O)=CC3=O)n1 [Compound 5]	1.88	0.88	0.29	0.74	–
CC(=O)NC1=CC(=O)c2ccc(-c3nc(C(=O)O)cc4c3[nH]c3ccccc34)nc2C1=O [Compound 2]	2.14	1.36	0.38	1.50	Activity (Average PG for highest dose tested) Prostate Cancer [1]: −45.5%; Activity (Average PG for highest dose tested) CNS Cancer [2]: −26.6%; Activity (Average PG for highest dose tested) Leukemia [5]: −34.7%; Activity (Average PG for highest dose tested) Non-Small Cell Lung Cancer [6]: −27.9%; Activity (Average PG for highest dose tested) Melanoma [7]: −53.7%; Activity (Average PG for highest dose tested) Ovarian Cancer [9]: −62.7%; Activity (Average PG for highest dose tested) Colon Cancer [10]: −43.6%; Activity (Average PG for highest dose tested) Breast Cancer [11]: −32.6%; Activity (Average PG for highest dose tested) Renal Cancer [12]: −74.6%
CCCC(=O)NC1=CC(=O)c2ccc(-c3nc(C(=O)OCCC(C)C)cc4c3[nH]c3ccccc34)nc2C1=O [Compound 13, 7-N-BUTYRYLDEMETHYLLAVENDAMYCIN ISOAMYL ESTER]	1.67	2.70	0.42	1.53	–
CCCCOC(=O)c1cc2c([nH]c3ccccc32)c(-c2ccc3c(n2)C(=O)C(NC(=O)C(C)C)=CC3=O)n1 [Compound 15]	2.25	1.48	1.00	1.80	–
Cc1cn([C@H]2C[C@H](N=[N+]=[N-])[C@@H](COP(=O)(O)OP(=O)(O)OP(=O)(O)O)O2)c(=O)[nH]c1=O [AZT-TP, 3′-azido-3′-deoxythymidine 5′-triphosphate, reference compound]	–	–	–	–	% inh. Trial 1 [15, 16]: 27%; % inh. Trial 2 [15, 16]: 27%; % inh. Trial 3 [15, 16]: 29%; % inh. ave. [15, 16]: 27.7%; % inh. Trial 1 [15, 17]: 51%; % inh. Trial 2 [15, 17]: 52%; % inh. Trial 3 [15, 17]: 49%; % inh. ave. [15, 17]: 50.7%
CCCC(=O)NC1=CC(=O)c2ccc(-c3nc(C(=O)OC)c(C)c4c3[nH]c3ccccc34)nc2C1=O [Compound 11, 7-N-BUTYRYLLAVENDAMYCIN METHYL ESTER]	0.97	0.80	0.39	0.76	–
CC(=O)NC1=CC(=O)c2ccc(-c3nccc4c3[nH]c3ccccc34)nc2C1=O [Compound 6]	0.91	1.00	0.13	0.82	–
CCCCCCCCOC(=O)c1cc2c([nH]c3ccccc32)c(-c2ccc3c(n2)C(=O)C(NC(=O)CCl)=CC3=O)n1 [Compound 10, 7-N-CHLOROACETYLDEMETHYLLAVENDAMYCIN OCTYL ESTER]	>2.2	i1.0	i1.0	i1.0	–
CC(C)C(=O)NC1=CC(=O)c2ccc(C=O)nc2C1=O [Compound 25]	>1.5	˜1.0	>3.3	˜1.0	–
Cc1ccc2c(n1)C(=O)C(N)=C(Cl)C2=O [Compound 59, 7-Amino-6-Chloro-2-Methylquinoline-5,8-Dione]	1.25	1.25	0.63	1.14	–
COC(=O)c1nc(-c2ccc3c(n2)C(=O)C(NC(=O)CCl)=CC3=O)c2[nH]c3ccccc3c2c1C [Compound 7, 7-N-CHLOROACETYLLAVENDAMYCIN METHYL ESTER]	0.73	1.00	0.29	0.76	–

— patent US6444684B1 (priority 1993, dated 2002)
